Measurements: patent US12358895B2, “Process for manufacture of (S)-N-(3-((2-((4-((1-acetylpyrrolidin-3-yl)(methyl)amino)phenyl)amino)-5-methoxypyrimidin-4-yl)oxy)phenyl)acrylamide, and formulations thereof” (ACEA Therapeutics, Inc., priority 2018, dated 2025)

Assays:
Type in all cases: physicochemical
[1] = Storage stability of encapsulated Compound A-TA in HDPE bottle with deoxidizer; conditions: opaque HDPE bottle, LDPE cap, deoxidizer (PharmaKeep CD20)
[2] = Chemical and polymorphic stability of solid forms
[3] = pKa of the drug substance freebase
Description: (§1) The drug substance freebase is a weakly basic compound with a pKa of approximately 5.3. The aqueous solubility of the freebase is pH dependent. […] To enhance the absorption and bioavailability, a tartrate salt (Compound A-TA) was made to enhance the dissolution of the molecule in compositions intended for oral administration.

[4] = Aqueous solubility
Description: Therefore, the L-(+)-tartrate salt of Compound A, referred to hereinafter as Compound A L-(+)-tartrate, or Compound A-TA, is especially suited for development and is used in many of the compositions and methods herein.
as §1

| SMILES | storage stability at 40° C. and 75% relative humidity ([1]; up to 6 months) | storage stability at 25° C. and 60% relative humidity ([1]; up to 24 months) | chemical and polymorphic stability [2] | pKa [3] | water solubility [4] | aqueous solubility at higher pH [4] | aqueous solubility at higher pH ([4]; listed as freebase) | aqueous solubility at lower pH ([4]; lower pH) |
| --- | --- | --- | --- | --- | --- | --- | --- | --- |
| C=CC(=O)Nc1cccc(Oc2nc(Nc3ccc(N(C)[C@H]4CCN(C(C)=O)C4)cc3)ncc2OC)c1.O=C(O)C(O)C(O)C(=O)O [Compound A-TA, (S)—N-(3-((2-((4-((1-acetylpyrrolidin-3-yl)(methyl)amino)phenyl)amino)-5-methoxypyrimidin-4-yl)oxy)phenyl)acrylamide L-(+)-tartrate dihydrate] | highly stable | highly stable | high chemical and polymorphic stability | – | – | – | – | – |
| C=CC(=O)Nc1cccc(Oc2nc(Nc3ccc(N(C)[C@H]4CCN(C(C)=O)C4)cc3)ncc2OC)c1 [Compound A, (S)—N-(3-(2-(4-((1-acetylpyrrolidin-3-yl)(methyl)amino)phenylamino)-5-methoxypyrimidin-4-yloxy)phenyl)acrylamide] | – | – | – | ~5.3 | low water solubility | nearly insoluble | almost insoluble | increases dramatically |
